The structures appear in SMILES notation. Where only a bound is given, the exact number is not on record here.

The text below walks through data of patent US8618289B2 (Ambit Biosciences Corporation, priority 2008, dated 2013).

The test system of test [1] is MEK1 phosphorylation in the A375 human melanoma cell line. The test can be described thus: cells. The conditions noted are these: A-375, read-out: pMEK IC50.
Another test concerns A375 cells. Put plainly: cells. The conditions noted are these: Homo sapiens, A-375, read-out: A375 Viability EC50.
For another test, the target named is RAF kinases (Homo sapiens, UniProt P15056). The test can be described thus: biochemical.
Sequence of RAF kinases (P15056 whole entry): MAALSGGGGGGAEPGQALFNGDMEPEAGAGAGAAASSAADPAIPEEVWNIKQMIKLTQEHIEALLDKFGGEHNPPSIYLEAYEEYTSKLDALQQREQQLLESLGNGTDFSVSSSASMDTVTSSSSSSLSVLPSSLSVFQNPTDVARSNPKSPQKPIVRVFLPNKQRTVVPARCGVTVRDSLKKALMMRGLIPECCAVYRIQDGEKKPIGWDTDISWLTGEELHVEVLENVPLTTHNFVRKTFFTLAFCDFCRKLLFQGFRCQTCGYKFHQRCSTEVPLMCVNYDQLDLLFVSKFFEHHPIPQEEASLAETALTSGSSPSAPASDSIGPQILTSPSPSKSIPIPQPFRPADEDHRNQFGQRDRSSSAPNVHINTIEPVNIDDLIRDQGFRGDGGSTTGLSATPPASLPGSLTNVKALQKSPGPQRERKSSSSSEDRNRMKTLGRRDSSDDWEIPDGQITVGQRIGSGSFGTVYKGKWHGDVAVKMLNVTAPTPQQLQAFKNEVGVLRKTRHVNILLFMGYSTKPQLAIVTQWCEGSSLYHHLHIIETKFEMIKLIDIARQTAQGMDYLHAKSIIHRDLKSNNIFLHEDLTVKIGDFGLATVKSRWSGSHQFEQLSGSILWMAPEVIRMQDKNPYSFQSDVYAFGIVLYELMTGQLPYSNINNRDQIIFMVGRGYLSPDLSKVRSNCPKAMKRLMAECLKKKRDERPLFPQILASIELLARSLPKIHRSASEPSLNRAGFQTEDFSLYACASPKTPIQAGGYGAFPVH

Regarding `COc1cc2ncnc(Oc3cccc(NC(=O)Nc4cc(C(C)(CF)CF)nn4-c4ccccc4)c3)c2cc1OC` [Ex 167, 1-[3-(1,3-difluoro-2-methylpropan-2-yl)-1-phenyl-1H-pyrazol-5-yl]-3-[3-(6,7-dimethoxyquinazolin-4-yloxy)phenyl]urea], the concentration for half-maximal inhibition (IC50) (usually the concentration that gives 50% inhibition) in test [1] was less than 250 nM. Also, the EC50 (commonly the concentration that produces a half-maximal response) in the test on A375 cells fell in the range of 500 to 1000 nM. For `COc1cc2ncnc(Oc3cccc(NC(=O)Nc4cc(C(C)(C)C)on4)c3)c2cc1O[C@H]1CCN(CC(F)F)C1` [Ex 110, (S)-1-(5-tert-butylisoxazol-3-yl)-3-(3-(6-(1-(2,2-difluoroethyl)pyrrolidin-3-yloxy)-7-methoxyquinazolin-4-yloxy)phenyl)urea], in test [1], the half-maximal inhibitory concentration (IC50) was less than 250 nM. The Kd (commonly the equilibrium constant for the complex coming apart) at RAF kinases was in the range of 250 to 500 nM. Further, the 50% effective concentration (EC50) in the test with A375 cells was less than 250 nM. Take `COc1cc2c(Oc3cccc(NC(=O)Nc4cc(C(C)(C)C)on4)c3)ncnc2cc1O[C@H]1CCN(CC(F)(F)F)C1` [Ex 104, (S)-1-(5-tert-butylisoxazol-3-yl)-3-(3-{6-methoxy-7-[1-(2,2,2-trifluoroethyl)pyrrolidin-3-yloxy]quinazolin-4-yloxy}phenyl)urea]: the half-maximal inhibitory concentration (IC50) in test [1] was 500 to 1000 nM. Further, the concentration giving a half-maximal response (EC50) in the test with A375 cells was greater than 1000 nM. In the same order, the values of `COc1cc2c(Oc3cccc(NC(=O)Nc4cc(C(C)(C)C)on4)c3)ncnc2cc1OC1CCN(CC(F)F)CC1` [Ex 105, 1-(5-tert-butylisoxazol-3-yl)-3-(3-{7-[1-(2,2-difluoroethyl)piperidin-4-yloxy]-6-methoxyquinazolin-4-yloxy}phenyl)urea] are greater than 1000 nM and greater than 1000 nM. The matching figures for `COc1cc2ncnc(Oc3cccc(NC(=O)Nc4cc(C(C)C)no4)c3)c2cc1OC` [Ex 122, 1-(3-(6,7-dimethoxyquinazolin-4-yloxy)phenyl)-3-(3-isopropylisoxazol-5-yl)urea]: 250 to 500 nM and greater than 1000 nM. For the compound `COCC(C)(C)c1cc(NC(=O)Nc2cccc(Oc3ncnc4cc(OC)c(OC)cc34)c2)on1` [Ex 128, 1-(3-(6,7-dimethoxyquinazolin-4-yloxy)phenyl)-3-(3-(1-methoxy-2-methylpropan-2-yl)isoxazol-5-yl)urea], in test [1], the concentration for half-maximal inhibition (IC50) lay within 500 to 1000 nM. Moreover, the EC50 in the test with A375 cells was greater than 1000 nM. The matching figures for `COc1cc2ncnc(Sc3cccc(NC(=O)Nc4cc(C(C)(C)C)on4)c3)c2cc1OCCN1CCS(=O)(=O)CC1` [Ex 71, 1-(5-tert-butyl-isoxazol-3-yl)-3-(3-{6-[2-(1,1-dioxo-thiomorpholin-4-yl)-ethoxy]-7-methoxy-quinazolin-4-ylsulfanyl}-phenyl)-urea]: less than 250 nM and 250 to 500 nM. In the same order, the values of `COc1cc2ncnc(Oc3cccc(NC(=O)Nc4cc(C5CCCC5)on4)c3)c2cc1OC` [Ex 135, 1-(5-cyclopentylisoxazol-3-yl)-3-(3-(6,7-dimethoxyquinazolin-4-yloxy)phenyl)urea] are less than 250 nM and 250 to 500 nM. As to `COc1cc2ncnc(Oc3cccc(NC(=O)Nc4cc(C(F)(F)F)nn4C)c3)c2cc1OC` [Ex 164, 1-[3-(6,7-dimethoxyquinazolin-4-yloxy)phenyl]-3-[1-methyl-3-(trifluoromethyl)-1H-pyrazol-5-yl]urea], the IC50 in test [1] is 250 to 500 nM. Besides, the concentration giving a half-maximal response (EC50) in the test on A375 cells is greater than 1000 nM. The matching figures for `COc1cc2ncnc(Oc3cccc(NC(=O)Nc4cc(C5(C)CC5)on4)c3)c2cc1OC` [Ex 127, 1-(3-(6,7-dimethoxyquinazolin-4-yloxy)phenyl)-3-(5-(1-methylcyclopropyl)isoxazol-3-yl)urea]: 250 to 500 nM and greater than 1000 nM. In the same order, the values of `COc1cc2ncnc(Sc3cccc(NC(=O)Nc4cc(C(C)(C)C)on4)c3)c2cc1OCCS(C)(=O)=O` [Ex 88, 1-(5-tert-butylisoxazol-3-yl)-3-(3-(7-methoxy-6-(2-(methylsulfonyl)ethoxy)quinazolin-4-ylthio)phenyl)urea] are less than 250 nM and 500 to 1000 nM. Turning to `COc1cc2nc(Cl)nc(Sc3cccc(NC(=O)Nc4cc(C(C)(C)C)on4)c3)c2cc1OC` [Ex 89, 1-(5-tert-butylisoxazol-3-yl)-3-(3-(2-chloro-6,7-dimethoxyquinazolin-4-ylthio)phenyl)urea], the IC50 in test [1] is greater than 1000 nM. Still for that read-out and setting: the figure for `COc1cc2ncnc(Sc3cccc(NC(=O)Nc4cc(C(C)(C)C)nn4-c4ccccc4)c3)c2cc1OC` [Ex 154, 1-(3-tert-butyl-1-phenyl-1H-pyrazol-5-yl)-3-(3-(6,7-dimethoxyquinazolin-4-ylthio)phenyl)urea] is less than 250 nM. For `COc1ccc(NC(=O)Nc2cccc(Oc3ncnc4cc(OC)c(OC)cc34)c2)cc1Cl` [Ex 180, 1-(3-chloro-4-methoxyphenyl)-3-(3-(6,7-dimethoxyquinazolin-4-yloxy)phenyl)urea], the IC50 in test [1] was greater than 1000 nM. Moreover, in the test with A375 cells, the EC50 was greater than 1000 nM.

With `COc1cc2ncnc(Oc3cccc(NC(=O)Nc4cc(C(C)C)on4)c3)c2cc1OC` [Ex 133, 1-(3-(6,7-dimethoxyquinazolin-4-yloxy)phenyl)-3-(5-isopropylisoxazol-3-yl)urea], the IC50 in test [1] is 250 to 500 nM. The concentration for a half-maximal effect (EC50) in the test with A375 cells lay within 500 to 1000 nM. Consider `COc1cc2c(Oc3cccc(NC(=O)Nc4cc(C(C)(C)C)on4)c3)ncnc2cc1OC[C@H](O)CN1CCN(C)CC1` [Ex 100, (R)-1-(5-tert-butylisoxazol-3-yl)-3-(3-(7-(2-hydroxy-3-(4-methylpiperazin-1-yl)propoxy)-6-methoxyquinazolin-4-yloxy)phenyl)urea], for which, in test [1], the IC50 is less than 250 nM. In the test on A375 cells, the concentration for a half-maximal effect (EC50) is less than 250 nM. `COc1cc2ncnc(Oc3cccc(NC(=O)Nc4ccc(Cl)cc4)c3)c2cc1OC` [Ex 175, 1-(4-chlorophenyl)-3-(3-(6,7-dimethoxyquinazolin-4-yloxy)phenyl)urea]: the 50% inhibitory concentration (IC50) in test [1] is greater than 1000 nM. For the same compound, the EC50 in the test with A375 cells was greater than 1000 nM. Turning to `COc1cc2ncnc(Oc3cccc(NC(=O)Nc4cc(C(C)(C)F)on4)c3)c2cc1OC` [Ex 136, 1-(3-(6,7-dimethoxyquinazolin-4-yloxy)phenyl)-3-(5-(2-fluoropropan-2-yl)isoxazol-3-yl)urea], the half-maximal inhibitory concentration (IC50) in test [1] was less than 250 nM. Besides, in the test on A375 cells, the concentration for a half-maximal effect (EC50) lay within 250 to 500 nM.

With `COc1cc2ncnc(Sc3cccc(NC(=O)Nc4cc(C(C)C)on4)c3)c2cc1OC` [Ex 134, 1-(3-(6,7-dimethoxyquinazolin-4-ylthio)phenyl)-3-(5-isopropylisoxazol-3-yl)urea], the IC50 in test [1] was 250 to 500 nM. Besides, the 50% effective concentration (EC50) with A375 cells is greater than 1000 nM. For `COCCOc1cc2ncnc(Oc3cccc(NC(=O)Nc4ccc(OC)c(C(F)(F)F)c4)c3)c2cc1OC` [Ex 139, 1-(4-methoxy-3-(trifluoromethyl)phenyl)-3-(3-(6-methoxy-7-(2-methoxyethoxy)quinazolin-4-yloxy)phenyl)urea], the concentration for half-maximal inhibition (IC50) in test [1] lay in the range of 250 to 500 nM. For the same compound, the concentration giving a half-maximal response (EC50) in the test on A375 cells was greater than 1000 nM.

Consider `COc1cc2ncnc(Oc3cccc(NC(=O)Nc4cc(C5CC5)no4)c3)c2cc1OC` [Ex 124, 1-(3-cyclopropylisoxazol-5-yl)-3-(3-(6,7-dimethoxyquinazolin-4-yloxy)phenyl)urea], for which the half-inhibitory concentration (IC50) in test [1] is greater than 1000 nM. For the same compound, the concentration giving a half-maximal response (EC50) in the test with A375 cells was greater than 1000 nM. As to `COc1cc2ncnc(Oc3cccc(NC(=O)Nc4cc(C(F)(F)F)n(C)n4)c3)c2cc1OC` [Ex 165, 1-[3-(6,7-dimethoxyquinazolin-4-yloxy)phenyl]-3-[1-methyl-5-(trifluoromethyl)-1H-pyrazol-3-yl]urea], the half-inhibitory concentration (IC50) in test [1] lay in the range of 250 to 500 nM. The concentration giving a half-maximal response (EC50) in the test on A375 cells fell in the range of 500 to 1000 nM.

Regarding `COc1cc2ncnc(Oc3cccc(NC(=O)Nc4cccc(C(F)(F)F)c4)c3)c2cc1OC` [Ex 181, 1-(3-(6,7-dimethoxyquinazolin-4-yloxy)phenyl)-3-(3-(trifluoromethyl)phenyl)urea], the IC50 in test [1] was greater than 1000 nM. Further, in the test with A375 cells, the 50% effective concentration (EC50) is greater than 1000 nM. Turning to `COc1cc2ncnc(Oc3cccc(NC(=O)Nc4cc(C(F)(F)F)ccn4)c3)c2cc1OC` [Ex 141, 1-(3-(6,7-dimethoxyquinazolin-4-yloxy)phenyl)-3-(4-(trifluoromethyl)pyridin-2-yl)urea], in test [1], the IC50 fell in the range of 500 to 1000 nM. Besides, the EC50 in the test with A375 cells was greater than 1000 nM. `COc1cc2ncnc(Oc3cccc(NC(=O)Nc4cc(C(C)(C)C)on4)c3)c2cc1O[C@H]1CCN(C)C1` [Ex 109, (S)-1-(5-tert-butylisoxazol-3-yl)-3-(3-(7-methoxy-6-(1-methylpyrrolidin-3-yloxy)quinazolin-4-yloxy)phenyl)urea]: the concentration for half-maximal inhibition (IC50) in test [1] is less than 250 nM. In the test on A375 cells, the concentration giving a half-maximal response (EC50) fell in the range of 250 to 500 nM.

With `COc1cc2ncnc(Sc3cccc(NC(=O)Nc4cc(C(F)(F)F)nn4C)c3)c2cc1OC` [Ex 193, 1-[3-(6,7-dimethoxyquinazolin-4-ylthio)phenyl]-3-[1-methyl-3-(trifluoromethyl)-1H-pyrazol-5-yl]urea], the IC50 in test [1] was less than 250 nM. Moreover, the EC50 in the test with A375 cells fell in the range of 500 to 1000 nM. The matching figures for `COc1cc2ncnc(Oc3cccc(NC(=O)Nc4cc(C(C)(C)C)on4)c3)c2cc1OCCCN1CCOCC1` [Ex 22, 1-(5-tert-butylisoxazol-3-yl)-3-(3-(7-methoxy-6-(3-morpholinopropoxy)quinazolin-4-yloxy)phenyl)urea]: less than 250 nM and less than 250 nM.

Take `COc1cc2ncnc(Sc3cccc(NC(=O)Nc4cc(C(C)(CF)CF)nn4-c4ccccc4)c3)c2cc1OC` [Ex 196, 1-[3-(1,3-difluoro-2-methylpropan-2-yl)-1-phenyl-1H-pyrazol-5-yl]-3-[3-(6,7-dimethoxyquinazolin-4-ylthio)phenyl]urea]: the concentration for half-maximal inhibition (IC50) in test [1] was less than 250 nM. Further, in the test on A375 cells, the concentration for a half-maximal effect (EC50) is greater than 1000 nM.

For `COc1cc2ncnc(Sc3cccc(NC(=O)Nc4cc(C(C)(C)C)on4)c3)c2cc1OCCCS(C)(=O)=O` [Ex 64, 1-(5-tert-butylisoxazol-3-yl)-3-(3-(7-methoxy-6-(3-(methylsulfonyl)propoxy)quinazolin-4-ylthio)phenyl)urea], in test [1], the concentration for half-maximal inhibition (IC50) is less than 250 nM. Moreover, the EC50 in the test with A375 cells lay in the range of 250 to 500 nM. The matching figures for `COc1cc2ncnc(Oc3cccc(NC(=O)Nc4cc(C(F)(F)F)n(-c5ccccc5)n4)c3)c2cc1OC` [Ex 169, 1-[3-(6,7-dimethoxyquinazolin-4-yloxy)phenyl]-3-[1-phenyl-5-(trifluoromethyl)-1H-pyrazol-3-yl]urea]: 250 to 500 nM and greater than 1000 nM.
